Source: ChEMBL document CHEMBL1201862, “PubChem BioAssay data set” (2004)
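Cultured in 96-well plates, cells were exposed to test compound for 48 hours across five concentrations. GI50 = concentration required for 50% inhibition of growth.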 Calls of active or inactive are those of the source. Cut-off read from the data, not from the text of the source: active = GI50 up to about 1.1 µM and inactive = higher.

Columns and labels:
Assay in all cases: NCI-60 cell line screen, 48 h
[1] = system: OVCAR-3
[2] = system: DU-145
[3] = system: OVCAR-8
[4] = system: SK-MEL-28
[5] = system: TK-10
[6] = system: MCF7
[7] = system: A498
[8] = system: PC-3
[9] = system: HOP-62
[10] = system: UO-31
[11] = system: Malme-3M
[12] = system: HT-29
[13] = system: U-251
[14] = system: MDA-N
[15] = system: MDA-MB-435
[16] = system: SN12C
[17] = system: IGROV-1
[18] = system: 786-0
[19] = system: NCI-H226
[20] = system: ACHN
[21] = system: NCI/ADR-RES
[22] = system: SW-620
[23] = system: SR
[24] = system: SK-MEL-2
[25] = system: KM12
[26] = system: M14
[27] = system: BT-549
[28] = system: SNB-19
[29] = system: SF-268
[30] = system: EKVX
[31] = system: NCI-H522
[32] = system: A549
[33] = system: COLO 205
[34] = system: LOX IMVI
[35] = system: K562
[36] = system: MOLT-4
[37] = system: Hs-578T
[38] = system: HCT-116
[39] = system: UACC-62
[40] = system: NCI-H460
[41] = system: CAKI-1
[42] = system: T47D
[43] = system: HOP-92
[44] = system: HCT-15
[45] = system: UACC-257
[46] = system: SK-MEL-5
[47] = system: SF-295
[48] = system: OVCAR-5
[49] = system: RPMI-8226
[50] = system: OVCAR-4
[51] = system: MDA-MB-231
[52] = system: NCI-H23
[53] = system: HCC 2998
[54] = system: HL-60
[55] = system: SF-539
[56] = system: CCRF-CEM
[57] = system: SNB-75

`Nc1nc(O)c2c(n1)NCN(c1ccc(S(N)(=O)=O)cc1)C2` was tested, and the GI50 [1] was > 100 µM (inactive), the GI50 [2] was > 100 µM (inactive) and the GI50 [3] was > 100 µM (inactive). For the same molecule, the GI50 [4] was > 100 µM (inactive), the GI50 [5] was > 100 µM (inactive) and the GI50 [6] was > 100 µM (inactive). For the same molecule, the GI50 [7] was > 100 µM (inactive), the GI50 [8] was > 100 µM (inactive) and the GI50 [9] was 71 µM (inactive). For the same molecule, the GI50 [10] was > 100 µM (inactive), the GI50 [11] was > 100 µM (inactive) and the GI50 [12] was > 100 µM (inactive). The GI50 [13] was > 100 µM (inactive), the GI50 [14] was > 100 µM (inactive) and the GI50 [15] was > 100 µM (inactive). The GI50 [16] was > 100 µM (inactive), the GI50 [17] was > 100 µM (inactive) and the GI50 [18] was > 100 µM (inactive). The GI50 [19] was > 100 µM (inactive), the GI50 [20] was > 100 µM (inactive) and the GI50 [21] was > 100 µM (inactive). The GI50 [22] was > 100 µM (inactive), the GI50 [23] was > 100 µM (inactive) and the GI50 [24] was > 100 µM (inactive). For the same molecule, the GI50 [25] was > 100 µM (inactive), the GI50 [26] was > 100 µM (inactive) and the GI50 [27] was > 100 µM (inactive). The GI50 [28] was > 100 µM (inactive), the GI50 [29] was > 100 µM (inactive) and the GI50 [30] was > 100 µM (inactive). The GI50 [31] was > 100 µM (inactive), the GI50 [32] was > 100 µM (inactive) and the GI50 [33] was > 100 µM (inactive). The GI50 [34] was > 100 µM (inactive), the GI50 [35] was > 100 µM (inactive) and the GI50 [36] was > 100 µM (inactive). For the same molecule, the GI50 [37] was > 100 µM (inactive), the GI50 [38] was > 100 µM (inactive) and the GI50 [39] was > 100 µM (inactive). For the same molecule, the GI50 [40] was > 100 µM (inactive), the GI50 [41] was > 100 µM (inactive) and the GI50 [42] was > 100 µM (inactive). For the same molecule, the GI50 [43] was > 100 µM (inactive), the GI50 [44] was greater than 100 µM and the GI50 [45] was > 100 µM (inactive). The GI50 [46] was > 100 µM (inactive), the GI50 [47] was 85.9 µM (inactive) and the GI50 [48] was > 100 µM (inactive). The GI50 [49] was > 100 µM (inactive), the GI50 [50] was > 100 µM (inactive) and the GI50 [51] was > 100 µM (inactive).

For `CSc1c(C#N)c2n(c3ccccc13)c1ccccc1[n+]2C`, the GI50 [1] was 37.4 µM (inactive), the GI50 [2] was 29.2 µM (inactive) and the GI50 [3] was 24 µM (inactive). The GI50 [4] was 23.9 µM (inactive), the GI50 [5] was 21.1 µM (inactive) and the GI50 [6] was 35.6 µM (inactive). The GI50 [7] was 21 µM (inactive), the GI50 [8] was 26.7 µM (inactive) and the GI50 [9] was 23.1 µM (inactive). The GI50 [52] was 25.5 µM (inactive), the GI50 [10] was 18.5 µM (inactive) and the GI50 [11] was 16 µM (inactive). For the same molecule, the GI50 [12] was 21 µM (inactive), the GI50 [13] was 24.6 µM (inactive) and the GI50 [14] was 26.2 µM (inactive). For the same molecule, the GI50 [15] was 20.9 µM (inactive), the GI50 [16] was 18.2 µM (inactive) and the GI50 [17] was 33.2 µM (inactive). For the same molecule, the GI50 [18] was 32.7 µM (inactive), the GI50 [20] was 18.2 µM (inactive) and the GI50 [21] was 25.1 µM (inactive). For the same molecule, the GI50 [22] was 23.8 µM (inactive), the GI50 [23] was > 100 µM (inactive) and the GI50 [53] was 27.9 µM (inactive). The GI50 [24] was 20.3 µM (inactive), the GI50 [25] was 28.5 µM (inactive) and the GI50 [54] was 20.3 µM (inactive). For the same molecule, the GI50 [26] was 29.3 µM (inactive), the GI50 [27] was 19.7 µM (inactive) and the GI50 [55] was 22.4 µM (inactive). The GI50 [28] was > 10 µM (inactive), the GI50 [29] was 28.5 µM (inactive) and the GI50 [30] was 19.1 µM (inactive). For the same molecule, the GI50 [31] was 12.3 µM (inactive), the GI50 [32] was 24.1 µM (inactive) and the GI50 [33] was 15 µM (inactive). For the same molecule, the GI50 [34] was 33.1 µM (inactive), the GI50 [36] was 12.9 µM (inactive) and the GI50 [37] was 30.5 µM (inactive). The GI50 [38] was 6.4 µM (inactive), the GI50 [39] was 16.9 µM (inactive) and the GI50 [40] was 26.4 µM (inactive). For the same molecule, the GI50 [56] was 16 µM (inactive), the GI50 [41] was 21.3 µM (inactive) and the GI50 [42] was 30.1 µM (inactive). For the same molecule, the GI50 [43] was 33.5 µM (inactive), the GI50 [44] was 33.4 µM and the GI50 [45] was 19.7 µM (inactive). For the same molecule, the GI50 [46] was 11.9 µM (inactive), the GI50 [47] was 34 µM (inactive) and the GI50 [48] was 31.4 µM (inactive). For the same molecule, the GI50 [49] was 17.3 µM (inactive), the GI50 [50] was 59.3 µM (inactive) and the GI50 [51] was 20.7 µM (inactive). The GI50 [57] was 37.2 µM (inactive).
